A word on the Ki: it is the dissociation constant of the complex between target and ligand, obtained from inhibition or displacement. Broadly, the IC50 is the midpoint of a concentration-inhibition curve. As a reminder, the GI50 is the concentration giving 50% growth inhibition. What is called Tmax is the time from dosing to the highest level. A word on the Cmax: it is the maximum level reached in the sampled fluid or tissue.

Bounds are passed on as bounds.

We go through twelve molecules from ChEMBL document CHEMBL3871290, “3-Cyano-6-(5-methyl-3-pyrazoloamino) pyridines (Part 2): A dual inhibitor of Aurora kinase and tubulin polymerization” (Bioorg Med Chem Lett, 2016).

The target in data set [1] is T1, Aurora kinase A (Homo sapiens, UniProt O14965).
T1 sequence (O14965 whole entry): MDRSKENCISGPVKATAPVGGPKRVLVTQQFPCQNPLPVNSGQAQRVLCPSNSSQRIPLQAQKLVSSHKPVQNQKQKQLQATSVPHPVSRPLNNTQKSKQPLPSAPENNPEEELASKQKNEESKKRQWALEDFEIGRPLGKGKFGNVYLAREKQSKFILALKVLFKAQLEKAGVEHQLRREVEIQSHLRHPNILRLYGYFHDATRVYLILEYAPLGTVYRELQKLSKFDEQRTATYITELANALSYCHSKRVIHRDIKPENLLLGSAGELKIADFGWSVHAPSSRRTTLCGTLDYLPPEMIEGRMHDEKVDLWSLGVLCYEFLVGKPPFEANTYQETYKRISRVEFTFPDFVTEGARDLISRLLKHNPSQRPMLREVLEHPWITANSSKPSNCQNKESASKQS
The experiment in a line: Inhibition of recombinant Aurora A kinase derived from human Hela cells using kemptide as substrate in presence of [c-32P]ATP.

Data set [2] has as its target Cytochrome P450 2C19 (Homo sapiens, UniProt P33261). The experiment in a line: Inhibition of CYP2C19 (unknown origin). It counts as ADME.
In data set [3] the target is Cytochrome P450 2C9 (Homo sapiens, UniProt P11712). The experiment in a line: Inhibition of CYP2C9 (unknown origin). In kind it is ADME.
The target in data set [4] is CYP2D6 (Homo sapiens, UniProt P10635). As to the kind of experiment: (§1) Inhibition of CYP2D6 (unknown origin). It counts as ADME.
In data set [5] the target is T2, Cytochrome P450 1A2 (Homo sapiens, UniProt P05177).
T2 sequence (P05177 whole entry): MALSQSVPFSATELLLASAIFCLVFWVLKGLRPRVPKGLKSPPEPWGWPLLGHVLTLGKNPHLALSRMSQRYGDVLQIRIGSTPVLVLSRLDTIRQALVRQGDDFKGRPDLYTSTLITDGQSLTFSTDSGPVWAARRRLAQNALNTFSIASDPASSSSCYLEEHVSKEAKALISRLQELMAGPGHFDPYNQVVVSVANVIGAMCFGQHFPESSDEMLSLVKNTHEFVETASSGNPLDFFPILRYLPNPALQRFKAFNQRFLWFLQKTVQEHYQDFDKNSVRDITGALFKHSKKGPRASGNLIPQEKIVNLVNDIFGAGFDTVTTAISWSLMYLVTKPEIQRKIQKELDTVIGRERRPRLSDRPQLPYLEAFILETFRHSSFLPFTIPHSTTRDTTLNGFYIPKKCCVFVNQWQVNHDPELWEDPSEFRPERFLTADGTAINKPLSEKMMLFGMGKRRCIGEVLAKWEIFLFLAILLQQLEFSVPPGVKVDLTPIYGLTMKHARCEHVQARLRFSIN
As to the kind of experiment: Inhibition of CYP1A2 (unknown origin). In kind it is ADME.

Data set [6] can be described thus: Cytotoxicity against human HCT116 cells assessed as cell growth inhibition. The conditions noted are these: HCT-116. In kind it is functional.
For data set [7], the target named is Aurora kinase B (Homo sapiens, UniProt Q96GD4). As to the kind of experiment: Inhibition of Aurora 1 kinase (unknown origin).
For data set [8], the target named is Proto-oncogene tyrosine-protein kinase Src (Homo sapiens, UniProt P12931). The experiment in a line: Inhibition of cSRC (unknown origin).
Data set [9] deals with Fibroblast growth factor receptor 1 (Homo sapiens, UniProt P11362). The experiment in a line: Inhibition of FGFR1 (unknown origin).
Data set [10] concerns the target Tyrosine-protein kinase Fyn (Homo sapiens, UniProt P06241). As to the kind of experiment: Inhibition of FYN (unknown origin).
In data set [11] the target is Vascular endothelial growth factor receptor 2 (Homo sapiens, UniProt P35968). As to the kind of experiment: Inhibition of KDR (unknown origin).
Data set [12] has as its target Tyrosine-protein kinase Lyn (Homo sapiens, UniProt P07948). The experiment in a line: Inhibition of LYN (unknown origin).
The target in data set [13] is Tyrosine-protein kinase Yes (Homo sapiens, UniProt P07947). The experiment in a line: Inhibition of YES (unknown origin).
Data set [14] in a line: Antitumor activity against human HCT116 cells xenografted subcutaneously in mouse assessed as tumor growth inhibition at 30 mg/kg, po qd after 14 days. In kind it is functional. The note with it: HCT-116, 336 h, read-out: TGI. (In general: Xenograft models place foreign cells or tissue in a host animal.)
The nature of data set [15]: AUC in rat at 30 mg/kg, po. In kind it is ADME, organism-based. The note with it: in vivo.
Data set [16] can be described thus: Tmax in rat at 30 mg/kg, po. In kind it is ADME, organism-based. The note with it: in vivo.
The nature of data set [17]: Cmax in rat at 30 mg/kg, po. It counts as ADME, organism-based. Set-up: dose 30 mg/kg, route oral. The conditions noted are these: in vivo.
For data set [18], the target named is Cytochrome P450 3A4 (Homo sapiens, UniProt P08684). The experiment in a line: Inhibition of CYP3A4 (unknown origin). In kind it is ADME.
Data set [19] has as its target Cytochrome P450 2D6 (Homo sapiens, UniProt P10635). The data set is described as §1. It counts as ADME.
A short description of data set [20]: Antitumor activity against human PC3 cells xenografted subcutaneously in mouse assessed as tumor growth inhibition at 30 mg/kg, po qd for 14 days. In kind it is functional. The conditions noted are these: PC-3, 336 h, read-out: TGI.
Data set [21] is described as follows: Antitumor activity against mouse CT26 cells allografted subcutaneously in mouse assessed as tumor growth inhibition at 30 mg/kg, po qd for 14 days. The conditions noted are these: CT26, 336 h, read-out: TGI. It counts as functional.
Data set [22] is described as follows: Antitumor activity against human HCT116 cells xenografted subcutaneously in mouse assessed as tumor growth inhibition at 40 mg/kg, po qd administered on day 1, 5, 9, 13, 16 relative to control. In kind it is functional. The note with it: HCT-116, read-out: TGI.
Data set [23] is described as follows: Antitumor activity against human HCT116 cells xenografted subcutaneously in mouse assessed as tumor growth inhibition at 20 mg/kg, po qd administered on day 1, 5, 9, 13, 16 relative to control. In kind it is functional. The conditions noted are these: HCT-116, read-out: TGI.
The subject of data set [24] is Mus musculus. As to the kind of experiment: Toxicity in mouse allografted subcutaneously with mouse CT26 cells assessed as mortality at 30 mg/kg, ip qd for 14 days. It counts as organism-based. The note with it: in vivo, 336 h.
The nature of data set [25]: Antitumor activity against mouse CT26 cells allografted subcutaneously in mouse assessed as tumor growth inhibition at 25 mg/kg, ip qd for 14 days. The note with it: CT26, 336 h, read-out: TGI. In kind it is functional.

Cytochrome P450 3A4, sequence (P08684 whole entry): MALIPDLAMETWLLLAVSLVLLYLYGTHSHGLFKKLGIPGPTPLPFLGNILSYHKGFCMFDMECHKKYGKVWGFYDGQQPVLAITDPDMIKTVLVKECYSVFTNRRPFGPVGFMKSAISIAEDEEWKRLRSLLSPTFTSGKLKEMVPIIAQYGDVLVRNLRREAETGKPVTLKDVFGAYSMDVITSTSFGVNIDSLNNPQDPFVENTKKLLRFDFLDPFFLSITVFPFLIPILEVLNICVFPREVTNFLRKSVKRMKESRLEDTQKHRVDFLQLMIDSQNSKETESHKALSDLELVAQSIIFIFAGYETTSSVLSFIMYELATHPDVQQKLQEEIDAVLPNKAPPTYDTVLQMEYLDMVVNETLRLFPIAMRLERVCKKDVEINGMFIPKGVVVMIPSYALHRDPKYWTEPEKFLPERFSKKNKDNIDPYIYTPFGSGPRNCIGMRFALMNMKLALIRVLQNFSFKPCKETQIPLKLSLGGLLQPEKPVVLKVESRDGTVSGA
Cytochrome P450 2D6, sequence (P10635 whole entry): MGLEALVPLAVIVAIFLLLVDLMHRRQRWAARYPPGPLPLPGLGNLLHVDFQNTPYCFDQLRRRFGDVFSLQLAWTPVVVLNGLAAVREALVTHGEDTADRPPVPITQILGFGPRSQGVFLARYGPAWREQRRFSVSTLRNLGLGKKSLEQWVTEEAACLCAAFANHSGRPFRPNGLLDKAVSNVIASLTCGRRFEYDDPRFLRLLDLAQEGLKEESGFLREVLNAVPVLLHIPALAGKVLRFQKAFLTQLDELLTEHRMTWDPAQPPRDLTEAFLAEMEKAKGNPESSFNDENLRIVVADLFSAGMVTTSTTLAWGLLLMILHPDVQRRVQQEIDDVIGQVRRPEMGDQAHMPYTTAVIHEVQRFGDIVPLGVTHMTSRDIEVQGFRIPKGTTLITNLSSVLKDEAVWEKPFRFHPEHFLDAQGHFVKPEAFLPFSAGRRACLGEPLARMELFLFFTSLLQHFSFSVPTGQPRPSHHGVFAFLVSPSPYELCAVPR
Cytochrome P450 2C9, sequence (P11712 whole entry): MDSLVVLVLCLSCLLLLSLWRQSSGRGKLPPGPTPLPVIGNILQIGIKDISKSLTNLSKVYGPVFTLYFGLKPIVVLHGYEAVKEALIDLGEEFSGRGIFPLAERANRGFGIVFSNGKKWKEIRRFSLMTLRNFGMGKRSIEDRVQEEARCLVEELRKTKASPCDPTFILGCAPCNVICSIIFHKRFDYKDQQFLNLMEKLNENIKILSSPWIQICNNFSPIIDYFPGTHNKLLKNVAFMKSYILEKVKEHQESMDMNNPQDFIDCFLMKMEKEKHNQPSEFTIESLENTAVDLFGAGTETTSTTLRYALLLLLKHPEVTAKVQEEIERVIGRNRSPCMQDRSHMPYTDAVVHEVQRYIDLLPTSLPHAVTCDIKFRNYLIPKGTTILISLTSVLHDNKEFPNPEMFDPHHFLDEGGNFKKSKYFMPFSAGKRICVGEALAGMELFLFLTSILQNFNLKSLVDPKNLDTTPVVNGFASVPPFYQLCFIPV
Cytochrome P450 2C19, sequence (P33261 whole entry): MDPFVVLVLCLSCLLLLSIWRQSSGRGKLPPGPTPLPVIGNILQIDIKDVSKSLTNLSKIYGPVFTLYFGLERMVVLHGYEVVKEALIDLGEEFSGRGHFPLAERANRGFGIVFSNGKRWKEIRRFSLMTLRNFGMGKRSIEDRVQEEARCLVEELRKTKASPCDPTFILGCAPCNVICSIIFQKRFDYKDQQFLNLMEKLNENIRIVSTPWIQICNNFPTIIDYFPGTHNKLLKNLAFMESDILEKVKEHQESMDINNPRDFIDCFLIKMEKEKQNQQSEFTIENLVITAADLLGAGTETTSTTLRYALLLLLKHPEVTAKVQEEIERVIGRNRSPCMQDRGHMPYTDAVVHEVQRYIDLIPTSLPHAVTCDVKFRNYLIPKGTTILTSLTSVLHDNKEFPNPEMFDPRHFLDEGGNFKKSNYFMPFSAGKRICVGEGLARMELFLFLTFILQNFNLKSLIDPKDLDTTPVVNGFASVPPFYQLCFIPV
Tyrosine-protein kinase Fyn, sequence (P06241 whole entry): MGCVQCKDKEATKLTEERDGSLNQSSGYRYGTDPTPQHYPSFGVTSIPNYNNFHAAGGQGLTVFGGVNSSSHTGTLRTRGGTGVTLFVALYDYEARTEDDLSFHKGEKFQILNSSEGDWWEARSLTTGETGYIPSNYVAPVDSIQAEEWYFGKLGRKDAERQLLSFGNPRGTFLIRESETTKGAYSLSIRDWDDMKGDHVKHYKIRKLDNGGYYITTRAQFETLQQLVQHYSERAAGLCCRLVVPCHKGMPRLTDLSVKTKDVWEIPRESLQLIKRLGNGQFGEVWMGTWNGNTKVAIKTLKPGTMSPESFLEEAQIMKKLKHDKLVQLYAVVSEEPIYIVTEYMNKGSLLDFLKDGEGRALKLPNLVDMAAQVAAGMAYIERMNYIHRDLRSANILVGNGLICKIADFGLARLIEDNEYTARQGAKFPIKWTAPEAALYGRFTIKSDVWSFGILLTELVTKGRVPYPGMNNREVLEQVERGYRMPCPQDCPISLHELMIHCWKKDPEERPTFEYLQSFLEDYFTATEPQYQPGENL
Fibroblast growth factor receptor 1, sequence (P11362 whole entry): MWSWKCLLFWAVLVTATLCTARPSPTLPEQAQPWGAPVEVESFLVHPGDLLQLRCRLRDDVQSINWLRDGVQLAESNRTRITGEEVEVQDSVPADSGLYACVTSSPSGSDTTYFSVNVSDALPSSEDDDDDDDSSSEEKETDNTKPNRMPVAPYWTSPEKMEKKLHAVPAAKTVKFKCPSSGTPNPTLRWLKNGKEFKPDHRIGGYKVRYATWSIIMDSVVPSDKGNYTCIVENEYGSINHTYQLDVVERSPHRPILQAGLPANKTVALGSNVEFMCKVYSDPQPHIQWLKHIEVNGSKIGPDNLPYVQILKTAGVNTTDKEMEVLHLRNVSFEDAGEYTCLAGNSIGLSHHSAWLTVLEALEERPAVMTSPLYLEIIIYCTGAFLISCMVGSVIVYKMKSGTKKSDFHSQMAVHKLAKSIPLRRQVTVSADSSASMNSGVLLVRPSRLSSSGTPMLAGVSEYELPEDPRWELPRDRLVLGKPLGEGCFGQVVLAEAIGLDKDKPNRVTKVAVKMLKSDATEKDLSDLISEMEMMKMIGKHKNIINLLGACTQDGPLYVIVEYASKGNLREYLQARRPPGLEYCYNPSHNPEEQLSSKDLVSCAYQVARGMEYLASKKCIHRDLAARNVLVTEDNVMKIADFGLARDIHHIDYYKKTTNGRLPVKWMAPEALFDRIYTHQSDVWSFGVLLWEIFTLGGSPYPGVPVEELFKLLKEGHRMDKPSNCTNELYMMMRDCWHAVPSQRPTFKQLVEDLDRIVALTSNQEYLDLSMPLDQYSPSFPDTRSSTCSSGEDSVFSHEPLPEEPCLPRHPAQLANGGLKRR
Tyrosine-protein kinase Lyn, sequence (P07948 whole entry): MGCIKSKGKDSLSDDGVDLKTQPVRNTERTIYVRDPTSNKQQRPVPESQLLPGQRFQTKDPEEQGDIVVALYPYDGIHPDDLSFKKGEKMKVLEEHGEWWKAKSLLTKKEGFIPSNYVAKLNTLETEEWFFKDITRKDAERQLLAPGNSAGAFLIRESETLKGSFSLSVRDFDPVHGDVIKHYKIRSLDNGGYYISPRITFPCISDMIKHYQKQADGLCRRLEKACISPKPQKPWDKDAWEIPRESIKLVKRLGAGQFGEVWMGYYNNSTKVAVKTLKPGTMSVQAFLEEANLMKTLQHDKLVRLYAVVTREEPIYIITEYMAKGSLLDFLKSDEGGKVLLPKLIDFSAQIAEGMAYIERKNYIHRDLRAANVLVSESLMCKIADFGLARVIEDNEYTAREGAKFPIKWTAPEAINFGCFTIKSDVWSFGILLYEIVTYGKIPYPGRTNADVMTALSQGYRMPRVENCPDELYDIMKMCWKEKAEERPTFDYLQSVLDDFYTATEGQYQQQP
Proto-oncogene tyrosine-protein kinase Src, sequence (P12931 2-536 limits assumed): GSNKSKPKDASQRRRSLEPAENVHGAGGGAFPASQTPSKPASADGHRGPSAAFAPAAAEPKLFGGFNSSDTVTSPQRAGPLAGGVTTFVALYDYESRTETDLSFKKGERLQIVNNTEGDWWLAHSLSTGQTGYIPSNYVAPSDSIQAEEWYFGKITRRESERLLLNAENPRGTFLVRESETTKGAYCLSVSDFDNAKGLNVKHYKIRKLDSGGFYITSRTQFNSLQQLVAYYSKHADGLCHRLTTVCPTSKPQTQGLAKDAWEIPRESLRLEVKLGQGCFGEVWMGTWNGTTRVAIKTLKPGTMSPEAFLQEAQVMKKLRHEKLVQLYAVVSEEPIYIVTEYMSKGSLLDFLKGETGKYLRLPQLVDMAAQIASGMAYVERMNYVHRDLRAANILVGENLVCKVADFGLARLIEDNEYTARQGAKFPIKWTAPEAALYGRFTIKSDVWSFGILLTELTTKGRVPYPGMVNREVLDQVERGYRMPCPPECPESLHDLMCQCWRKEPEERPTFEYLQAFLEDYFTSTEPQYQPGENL
Aurora kinase B, sequence (Q96GD4 whole entry): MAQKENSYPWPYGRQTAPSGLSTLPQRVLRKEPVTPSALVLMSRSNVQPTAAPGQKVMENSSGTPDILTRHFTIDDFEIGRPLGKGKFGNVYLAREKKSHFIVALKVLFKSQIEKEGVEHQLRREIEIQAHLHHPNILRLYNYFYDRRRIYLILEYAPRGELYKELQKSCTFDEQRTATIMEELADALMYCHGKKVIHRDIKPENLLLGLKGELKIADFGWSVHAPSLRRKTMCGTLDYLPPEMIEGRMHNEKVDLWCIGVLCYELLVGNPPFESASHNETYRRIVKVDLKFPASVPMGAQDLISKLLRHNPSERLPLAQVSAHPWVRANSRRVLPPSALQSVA
CYP2D6, sequence (P10635 whole entry): as the sequence (P10635 whole entry) above

In the case of `Cc1cc(Nc2cc(C)c(C#N)c(N[C@@H](C)CCCC(C)(C)O)n2)n[nH]1`, the Ki in data set [1] was below 1 nM. For the same molecule, the concentration for half-maximal inhibition (IC50) in [2] is below 400 nM; in data set [3] it was 1700 nM; in data set [4], below 50000 nM; in data set [5], 55000 nM. Further, the GI50 in data set [6] stood at 52 nM.

`Cc1ccc(OCCNc2nc(Nc3cc(C)[nH]n3)cc(C)c2C#N)cn1`: the Ki in data set [1] is 4 nM; in data set [7] it was 10 nM; in [8] it was 480 nM; in [9], 80 nM; in [10], 80 nM; in data set [11], 590 nM. Besides, the Ki in data set [12] was found to be 490 nM; in data set [13] it was 79 nM. Besides, the inhibition in vivo at 30 mg/kg in data set [14] amounted to 81.9%; in [20], 85%; in data set [21], 47.8%. Besides, the AUC in data set [15] is 14.6 µg/mL. Further, in data set [16], the Tmax amounted to 15 min. This molecule gave a Cmax in [17] of 19600 ng/mL. In addition, the IC50 in [2] was 4500 nM; in data set [3], 4900 nM; in data set [18] it was 4500 nM; in data set [19] it was above 50000 nM; in data set [5], 2000 nM. For the same molecule, the GI50 in [6] stood at 1 nM. Besides, the inhibition in vivo at 40 mg/kg in [22] was found to be 71%. The inhibition in vivo at 20 mg/kg in data set [23] was found to be 44%.

For `Cc1cc(Nc2cc(C)c(C#N)c(NCCOc3ccccc3F)n2)n[nH]1`, the Ki in [1] is below 1 nM. Also, the IC50 is 1600 nM in data set [18], 7700 nM in data set [19] and below 400 nM in [5]. In [6], the GI50 was found to be 26 nM.

For the molecule `Cc1cc(Nc2cc(C)c(C#N)c(NCCOc3cccnc3)n2)n[nH]1`, the IC50 in data set [18] is below 400 nM; in data set [19], 9900 nM; in data set [5], 700 nM. In data set [6], the 50% growth inhibitory concentration (GI50) was 2 nM.

On to `Cc1cc(Nc2cc(C)c(C#N)c(NCCOc3ccncc3)n2)n[nH]1`, for which, in data set [1], the Ki was 29 nM. For the same molecule, the results for the IC50 in data set [18], in data set [19] and in [5] were below 400 nM, 2000 nM and below 400 nM, respectively. In data set [6], the GI50 is 120 nM.

With `Cc1cc(Nc2cc(C)c(C#N)c(NCCOc3ccccn3)n2)n[nH]1`, the results for the IC50 in [18], in [19] and in [5] were 7200 nM, 29000 nM and below 400 nM, respectively. In addition, the GI50 in data set [6] turned out to be 67 nM.

As for `CCc1ccc(OCCNc2nc(Nc3cc(C)[nH]n3)cc(C)c2C#N)cn1`, the Ki in data set [1] was 6 nM. In addition, the half-inhibitory concentration (IC50) in data set [2] turned out to be 800 nM; in data set [3] it was 1400 nM; in data set [18], 1600 nM; in [19], 46000 nM; in [5] it was 1400 nM. The GI50 in [6] worked out at 66 nM.

In the case of `Cc1cc(Nc2cc(C)c(C#N)c(NCCOc3cccnc3C)n2)n[nH]1`, the IC50 in data set [2] is 900 nM; in data set [3], 2400 nM; in data set [18] it was 1800 nM; in [19], above 50000 nM; in [5] it was 5500 nM. Further, in data set [6], the GI50 is 4 nM.

Turning to `Cc1cc(Nc2cc(C)c(C#N)c(NCCOc3ccccc3)n2)n[nH]1`, in data set [1], the Ki was 2 nM. For the same molecule, the IC50 in data set [18] is 1400 nM; in [19], 7200 nM; in [5], below 400 nM. The GI50 in [6] stood at 11 nM.

For `Cc1ccc(OCCNc2nc(Nc3cc(C)[nH]n3)cc(C)c2C#N)c(C)n1`, the 50% inhibitory concentration (IC50) in [2] is 1700 nM; in data set [3] it was 3500 nM; in [18], 1700 nM; in data set [19], above 50000 nM; in data set [5], above 50000 nM. In data set [6], the GI50 was found to be 37 nM.

Turning to `Cc1cc(Nc2cc(C)c(C#N)c(NCCOc3ccccc3Cl)n2)n[nH]1`, the IC50 was below 400 nM in data set [2]; below 200 nM in data set [3]; 1200 nM in [18]; 6500 nM in [19]; 500 nM in data set [5]. For the same molecule, in data set [6], the GI50 is 9 nM.

As for `CC(=O)O[C@H]1C(=O)[C@@]2(C)[C@H]([C@H](OC(=O)c3ccccc3)[C@]3(O)C[C@H](OC(=O)[C@H](O)[C@@H](NC(=O)c4ccccc4)c4ccccc4)C(C)=C1C3(C)C)[C@]1(OC(C)=O)CO[C@@H]1C[C@@H]2O` [PACLITAXEL], the Activity entry in [24] is listed as “Toxic”. Besides, in [25], the inhibition in vivo at 25 mg/kg was determined as 24.8%.
